Common to all, as to format: physicochemical
A short description of one data set: Hygroscopicity. The note with it: statement in words, no test described.
Data set [1] is described as follows: Water and atmospheric (storage) stability: total impurities by liquid chromatography after storage. The protocol:
This test is for confirming the storage stability of SK-3530 salt.
A sufficient stability is required to process a drug into a particular medication form. For instance, preparation into tablet or capsule requires atmospheric stability and preparation into injection may require water stability.
The following Table 1 (25° C., 75% humidity), Table 2 (40° C., 60% humidity) and Table 3 (50° C., 75% humidity) show the content of total impurities measured by liquid chromatography after storing dihydrochloride (2HCl), gentisate, maleate, citrate, fumarate and hemitartrate salts of SK-3530 for 1 week and 3 weeks.

A short description of another data set: Solubility. The note with it: statement in words, no test described.
Data set [2] is described as follows: Photostability test (UV and visible light), impurity content and color change. The protocol:
The following Table 4 and Table 5 show the photostability test result for dihydrochloride salt (2HCl), gentisate, maleate, citrate, fumarate and hemitartrate salts of SK-3530. The total ultraviolet (UV) radiation was 200 W·h/m^2 and the total visible light radiation was 1080 klux/m^2h. Each salt was kept on a Petri dish under the condition of 25° C. and 60% humidity.

A short description of data set [3]: Thermal stability test at 105° C., impurity content and color change. As for the experimental part:
The following Table 6 and Table 7 show the thermal stability test result for dihydrochloride salt (2HCl), gentisate, maleate, citrate, fumarate and hemitartrate salts of SK-3530. Each salt was placed on a Petri dish and kept in a dryer at 105° C. Following macroscopic observation at 3 hours and 48 hours later, the content of impurities was measured with liquid chromatography.

[4] abbreviates: thermal stability test, initial.

For `CCCOc1ccc(S(=O)(=O)N2CCN(CCO)CC2)cc1-c1nc2c(CCC)cn(CC)c2c(=O)[nH]1.Cl.Cl` [SK-3530 dihydrochloride salt, reference compound], the Hygroscopicity result in the data set “Hygroscopicity” was “hygroscopic”. Also, in data set [1] (25° C., 75% humidity, 1 week), the “Impurity content (%) at 25° C., 75% humidity, 1 week” value stood at 0.24%. The “Impurity content (%) at 25° C., 75% humidity, 3 weeks” value in data set [1] (25° C., 75% humidity, 3 weeks) worked out at 0.31%. Further, the “Impurity content (%) at 25° C., 75% humidity, Initial” value in data set [1] (25° C., 75% humidity, initial) was found to be 0.20%. Moreover, in data set [1] (40° C., 60% humidity, 1 week), the “Impurity content (%) at 40° C., 60% humidity, 1 week” value stood at 0.24%. For the same molecule, the “Impurity content (%) at 40° C., 60% humidity, 3 weeks” value in data set [1] (40° C., 60% humidity, 3 weeks) amounted to 0.38%. Moreover, the “Impurity content (%) at 40° C., 60% humidity, Initial” value in data set [1] (40° C., 60% humidity, initial) is 0.20%. In data set [1] (50° C., 75% humidity, 1 week), the “Impurity content (%) at 50° C., 75% humidity, 1 week” value stood at 0.27%. Besides, the “Impurity content (%) at 50° C., 75% humidity, 3 weeks” value in data set [1] (50° C., 75% humidity, 3 weeks) is given as 0.42%. Moreover, the “Impurity content (%) at 50° C., 75% humidity, Initial” value in data set [1] (50° C., 75% humidity, initial) was 0.20%. Moreover, the Solubility entry in “Solubility” was “good solubility”. For the same molecule, the “Color change, Initial” value in data set [2] (photostability test, initial) was “White”; in data set [3] (setting [4]) it was “White”. The “Impurity content (%), Initial” value in data set [2] (photostability test, initial) is recorded as 0.20%; in data set [3] (setting [4]) it was 0.20%. Also, the “Color change, UV” value in data set [2] (total UV radiation 200 W·h/m^2, 25° C., 60% humidity) is reported as “Brown”. Besides, the “Impurity content (%), UV” value in data set [2] (total UV radiation 200 W·h/m^2, 25° C., 60% humidity, Petri dish) turned out to be 5.92%. The “Color change, Visible” value in data set [2] (total visible light radiation 1080 klux/m^2h, 25° C., 60% humidity) is “Yellow”. In addition, in data set [2] (total visible light radiation 1080 klux/m^2h, 25° C., 60% humidity, Petri dish), the “Impurity content (%), Visible” value was found to be 1.37%. Moreover, the “Impurity content (%), 3 hours” value in data set [3] (dryer at 105° C., 3 hours) came to 3.06%. The “Color change, 3 hours” value in data set [3] (dryer at 105° C., 3 hours, macroscopic observation) was “White”. Moreover, the “Impurity content (%), 48 hours” value in data set [3] (dryer at 105° C., 48 hours) is 14.37%. The “Color change, 48 hours” value in data set [3] (dryer at 105° C., 48 hours, macroscopic observation) is listed as “Yellow”.

The values are drawn from patent US20100069632A1, “SALTS OF PYRROLOPYRIMIDINONE DERIVATIVES AND PROCESS FOR PREPARING THE SAME” (SK CHEMICALS CO., LTD, priority 2006, published 2010).
